For 4 compounds, RC50 results are on record in ChEMBL document CHEMBL1148904, “Iridoid glycosides from Eremostachys glabra” (J Nat Prod, 2004).

The subject of this assay is Radical scavenging activity. In words: Antioxidant activity assessed as DPPH radical scavenging activity after 30 mins. In kind it is functional. Background: Loss of DPPH colour is used to gauge radical scavenging.

For `O=c1c(O)c(-c2ccc(O)c(O)c2)oc2cc(O)cc(O)c12`, the RC50 was found to be 2.88 ×10⁻⁵ mg/ml.
As for `COC(=O)C1=CO[C@@H](O[C@@H]2O[C@H](CO)[C@@H](O)[C@H](O)[C@H]2O)[C@H]2[C@H](C)C[C@@H](O)[C@@]12O`, the figure is 4.9 ×10⁻¹ mg/ml; as for `COC(=O)C1=CO[C@@H](O[C@@H]2O[C@H](CO)[C@@H](O)[C@H](O)[C@H]2O)[C@@H]2[C@@H]1[C@@H](O)C[C@]2(C)OC(C)=O`, 1.1 ×10⁻¹ mg/ml.
Regarding `COC(=O)C1=CO[C@@H](O[C@@H]2O[C@H](CO)[C@@H](O)[C@H](O)[C@H]2O)[C@H]2C(C)=C[C@@H](O)[C@@]12O`, the RC50 was 4.1 ×10⁻¹ mg/ml.
